US20240317884A1, “METHOD FOR ALLOWING IMMUNE CELLS INFILTRATION IN TUMORS” (Alethia Biotherapeutics Inc., priority 2021, published 2024)

Legend:
[1] = test system: CA 15-3, CA-125, CA 19-9, CEA, LDH and PSA; test: Phase I: circulating tumor biomarkers; type: in vivo, human
Experimental: Several well-established circulating biomarkers were evaluated to monitor the response to therapy. They included CA 15-3, CA-125, CA 19-9, CEA, LDH and PSA.

tumor biopsies = test: Human tumor biopsies of patients treated with AB-16B5 as single agent (H&E); type: in vivo; details: after the second cycle
Experimental: In parallel human tumor biopsies of patients treated with AB-16B5 as single agent were analyzed (FIGS. 2B-2E). Needle biopsies obtained from a patient with metastatic thyroid cancer and form a patient with inoperable metastatic gastric cancer were sectioned and stained with hematoxylin and eosin. An on-treatment biopsy from a patient with thyroid cancer metastasic to the lungs was obtained after the second cycle treatment with AB-16B5. […] Hemosiderin-laden macrophages were observed inside necrotic areas some reflecting red blood cell extravasation associated with necrosis (not shown). […] On display one finds.

Question: How did the “tumor biomarker levels over time” value ([1]; CA 15-3, CA-125, CA 19-9, CEA, LDH and PSA, correlated with disease progression) turn out when “AB-16B5: humanized IgG2 monoclonal antibody targeting sCLU; light chain SEQ ID NO:11, heavy chain SEQ ID NO:12” was run?
Answer: increased over time

Question: And the “level of CEA” value ([1]; in few patients)?
Answer: remained stable or decreased

Question: What about the “immune infiltrate, on-treatment biopsy” value (tumor biopsies; patient with inoperable metastatic gastric cancer, small fragments) of the same substance?
Answer: infiltrated by a mix neutrophilic and mononucleated immune cells infiltrate

Question: What about the “immune infiltrate, on-treatment biopsy” value (tumor biopsies; patient with thyroid cancer metastatic to the lungs, edge of fragment) of the same substance?
Answer: lymphoplasmacytic infiltrate was observed

Question: What about the “necrosis of tumor fragments, on-treatment biopsy” value (tumor biopsies; patient with thyroid cancer metastatic to the lungs, single agent) of the same substance?
Answer: essentially all tumor fragments were necrotic
